Laboratory results reported in ChEMBL document CHEMBL1145880, “Aryl piperazine melanocortin MC4 receptor agonists” (Bioorg Med Chem Lett, 2003).

Tests used:
Melanocortin receptor 4 [1] = molecular target: T1, Melanocortin receptor 4 (Homo sapiens, UniProt P32245); experiment: cAMP accumulation in HEK cells transfected with human melanocortin 4 receptor (hMC4R) with respect to alpha-MSH; format: functional, cell-based; settings: HEK293
Melanocortin receptor 4 [2] = molecular target: T1, Melanocortin receptor 4; experiment: Agonistic activity measured as […] cAMP accumulation in HEK cells expressing human Melanocortin 4 receptor (hMC4R); format: functional, cell-based, HEK293
Melanocortin receptor 4 [3] = molecular target: T1, Melanocortin receptor 4; experiment: cAMP accumulation in HEK cells transfected with human Melanocortin 4 receptor (hMC4R) with respect to alpha-MSH; format: functional, cell-based; settings: HEK293
Melanocortin receptor 5 = Melanocortin receptor 5 (Homo sapiens, UniProt P33032); experiment: In vitro cAMP accumulation in HEK cells transfected with human Melanocortin 5 receptor (hMC5R); format: functional, cell-based, HEK293
Melanocortin receptor 4 [4] = molecular target: Melanocortin receptor 4 (Mus musculus, UniProt P56450); experiment: In vitro cAMP accumulation in Y1 cells transfected with mouse Melanocortin 4 receptor (mMC4R); format: functional, cell-based
[5] = molecular target: Adrenocorticotropic hormone receptor (Mus musculus, UniProt Q64326); experiment: In vitro cAMP accumulation in Y1 cells transfected with mouse Melanocortin 2 receptor (mMC2R); format: functional, cell-based
Melanocortin receptor 3 = Melanocortin receptor 3 (Homo sapiens, UniProt P41968); experiment: In vitro cAMP accumulation in HEK cells transfected with human Melanocortin 3 receptor (hMC3R); format: functional, cell-based, HEK293
[6] = molecular target: Melanocyte-stimulating hormone receptor (Homo sapiens, UniProt Q01726); experiment: In vitro cAMP accumulation in HEK cells transfected with human Melanocortin 1 receptor (hMC1R); format: functional, cell-based, HEK293
Sequence of Melanocyte-stimulating hormone receptor (Q01726 whole entry): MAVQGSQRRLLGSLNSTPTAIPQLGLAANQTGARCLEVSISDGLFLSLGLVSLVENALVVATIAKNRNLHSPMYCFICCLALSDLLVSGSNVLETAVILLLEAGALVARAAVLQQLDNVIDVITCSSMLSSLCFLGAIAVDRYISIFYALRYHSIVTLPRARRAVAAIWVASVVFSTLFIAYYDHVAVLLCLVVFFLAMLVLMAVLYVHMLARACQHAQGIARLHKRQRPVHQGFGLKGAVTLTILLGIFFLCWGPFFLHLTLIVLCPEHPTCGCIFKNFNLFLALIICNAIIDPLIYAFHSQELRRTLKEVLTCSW

T1 sequence (P32245 whole entry): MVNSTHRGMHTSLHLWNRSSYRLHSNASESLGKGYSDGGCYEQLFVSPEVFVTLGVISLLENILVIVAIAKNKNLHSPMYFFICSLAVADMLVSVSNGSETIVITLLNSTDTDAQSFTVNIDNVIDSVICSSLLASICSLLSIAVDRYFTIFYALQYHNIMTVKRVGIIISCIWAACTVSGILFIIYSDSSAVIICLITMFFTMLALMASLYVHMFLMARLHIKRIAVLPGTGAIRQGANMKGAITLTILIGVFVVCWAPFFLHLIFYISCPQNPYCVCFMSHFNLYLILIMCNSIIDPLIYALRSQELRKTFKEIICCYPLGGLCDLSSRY
Sequence of Melanocortin receptor 5 (P33032 whole entry): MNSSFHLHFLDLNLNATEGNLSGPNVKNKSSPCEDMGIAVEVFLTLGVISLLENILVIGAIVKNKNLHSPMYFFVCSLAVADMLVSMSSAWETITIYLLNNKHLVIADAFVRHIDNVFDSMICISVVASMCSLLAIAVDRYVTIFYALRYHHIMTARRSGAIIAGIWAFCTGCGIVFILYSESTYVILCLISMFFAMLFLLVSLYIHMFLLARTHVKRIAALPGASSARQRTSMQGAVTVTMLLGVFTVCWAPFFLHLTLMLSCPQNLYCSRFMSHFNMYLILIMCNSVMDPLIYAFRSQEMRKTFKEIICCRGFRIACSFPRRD
Sequence of Melanocortin receptor 4 (Mus musculus, UniProt P56450) (P56450 whole entry): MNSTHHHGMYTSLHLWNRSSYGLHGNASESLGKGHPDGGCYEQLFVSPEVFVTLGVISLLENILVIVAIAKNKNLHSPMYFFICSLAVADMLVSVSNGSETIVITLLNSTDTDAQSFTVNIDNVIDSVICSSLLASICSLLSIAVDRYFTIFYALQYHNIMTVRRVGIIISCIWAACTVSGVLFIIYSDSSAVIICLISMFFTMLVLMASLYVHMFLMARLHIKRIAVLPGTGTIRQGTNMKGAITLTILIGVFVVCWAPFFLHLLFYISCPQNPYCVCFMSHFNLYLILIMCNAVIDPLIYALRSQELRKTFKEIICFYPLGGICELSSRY
Sequence of Adrenocorticotropic hormone receptor (Q64326 whole entry): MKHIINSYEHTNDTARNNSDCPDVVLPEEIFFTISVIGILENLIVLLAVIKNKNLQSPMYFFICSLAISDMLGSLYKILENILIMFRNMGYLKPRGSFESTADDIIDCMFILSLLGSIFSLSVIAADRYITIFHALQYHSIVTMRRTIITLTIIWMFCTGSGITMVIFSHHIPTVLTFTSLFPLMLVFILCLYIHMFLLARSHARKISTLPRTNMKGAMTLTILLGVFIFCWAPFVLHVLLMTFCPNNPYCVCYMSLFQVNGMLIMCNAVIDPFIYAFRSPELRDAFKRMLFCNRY
Sequence of Melanocortin receptor 3 (P41968 whole entry): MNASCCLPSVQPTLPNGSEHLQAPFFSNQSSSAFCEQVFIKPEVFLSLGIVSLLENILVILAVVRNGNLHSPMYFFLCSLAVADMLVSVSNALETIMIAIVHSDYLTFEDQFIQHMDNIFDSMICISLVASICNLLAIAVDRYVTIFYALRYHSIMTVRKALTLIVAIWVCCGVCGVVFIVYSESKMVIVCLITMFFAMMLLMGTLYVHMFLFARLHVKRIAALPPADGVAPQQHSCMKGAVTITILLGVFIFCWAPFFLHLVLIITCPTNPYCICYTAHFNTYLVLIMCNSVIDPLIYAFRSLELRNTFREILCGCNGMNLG

SMILES	Stimulation (Melanocortin receptor 4 [1])	EC50 (Melanocortin receptor 4 [2])	further results
COCC(=O)Nc1ccccc1N1CCN(C(=O)[C@@H](Cc2ccc(Cl)cc2)NC(=O)[C@H]2Cc3ccccc3CN2)CC1	34%	600 nM	
O=C(NCc1ccccc1)Nc1ccccc1N1CCN(C(=O)[C@@H](Cc2ccc(Cl)cc2)NC(=O)[C@H]2Cc3ccccc3CN2)CC1	62%	1000 nM	
O=C(Nc1ccccc1N1CCN(C(=O)[C@@H](Cc2ccc(Cl)cc2)NC(=O)[C@H]2Cc3ccccc3CN2)CC1)C1CC1			Fold stimulation (Melanocortin receptor 4 [3]): 21%
O=C(N[C@H](Cc1ccc(Cl)cc1)C(=O)N1CCN(c2ccccc2Cn2cnnc2)CC1)[C@H]1Cc2ccccc2CN1	100%	24 nM	EC50 (Melanocortin receptor 5): > 3000 nM; EC50 (Melanocortin receptor 4 [4]): 38 nM; EC50 [5]: > 10000 nM; EC50 (Melanocortin receptor 3): > 3000 nM; EC50 [6]: > 3000 nM
CCC(CC)N(Cc1ccccc1N1CCN(C(=O)[C@@H](Cc2ccc(Cl)cc2)NC(=O)[C@H]2Cc3ccccc3CN2)CC1)S(C)(=O)=O	100%	2200 nM	
CS(=O)(=O)Nc1ccccc1N1CCN(C(=O)[C@@H](Cc2ccc(Cl)cc2)NC(=O)[C@H]2Cc3ccccc3CN2)CC1	100%	380 nM	
O=C(N[C@H](Cc1ccc(Cl)cc1)C(=O)N1CCN(c2ccccc2Cn2cncn2)CC1)[C@H]1Cc2ccccc2CN1	100%	80 nM	EC50 (Melanocortin receptor 5): > 3000 nM; EC50 (Melanocortin receptor 4 [4]): 59 nM; EC50 [5]: > 10000 nM; EC50 (Melanocortin receptor 3): > 3000 nM; EC50 [6]: > 3000 nM
CC(C)S(=O)(=O)Nc1ccccc1N1CCN(C(=O)[C@@H](Cc2ccc(Cl)cc2)NC(=O)[C@H]2Cc3ccccc3CN2)CC1	85%	440 nM	
CC(C)(C)CN(Cc1ccccc1N1CCN(C(=O)[C@@H](Cc2ccc(Cl)cc2)NC(=O)[C@H]2Cc3ccccc3CN2)CC1)S(C)(=O)=O	100%	2400 nM	
CCOC(=O)NC(=O)Nc1ccccc1N1CCN(C(=O)[C@@H](Cc2ccc(Cl)cc2)NC(=O)[C@H]2Cc3ccccc3CN2)CC1	24%	650 nM	
CCC(C)N(Cc1ccccc1N1CCN(C(=O)[C@@H](Cc2ccc(Cl)cc2)NC(=O)[C@H]2Cc3ccccc3CN2)CC1)S(C)(=O)=O (stereo partly drawn)	100%	1000 nM	
O=C(N[C@H](Cc1ccc(Cl)cc1)C(=O)N1CCC(Cn2cncn2)(C2CCCCC2)CC1)[C@H]1Cc2ccccc2CN1	100%		EC50 (Melanocortin receptor 5): 2700 nM; EC50 (Melanocortin receptor 4 [4]): 7.6 nM; EC50 [5]: > 10000 nM
O=C(N[C@H](Cc1ccc(Cl)cc1)C(=O)N1CCN(c2cccc(Cl)c2Cn2cncn2)CC1)[C@H]1Cc2ccccc2CN1	70%	470 nM	
O=C(N[C@H](Cc1ccc(Cl)cc1)C(=O)N1CCN(c2ccccc2NS(=O)(=O)C(F)(F)F)CC1)[C@H]1Cc2ccccc2CN1	34%	4400 nM	
O=C(Nc1ccccc1N1CCN(C(=O)[C@@H](Cc2ccc(Cl)cc2)NC(=O)[C@H]2Cc3ccccc3CN2)CC1)c1ccncc1			Fold stimulation (Melanocortin receptor 4 [3]): 30%
COc1ccc(Cn2cncn2)c(N2CCN(C(=O)[C@@H](Cc3ccc(Cl)cc3)NC(=O)[C@H]3Cc4ccccc4CN3)CC2)c1	100%	110 nM	
CN(c1ccccc1N1CCN(C(=O)[C@@H](Cc2ccc(Cl)cc2)NC(=O)[C@H]2Cc3ccccc3CN2)CC1)S(C)(=O)=O	100%	520 nM	
CN(C)C(=O)Nc1ccccc1N1CCN(C(=O)[C@@H](Cc2ccc(Cl)cc2)NC(=O)[C@H]2Cc3ccccc3CN2)CC1			Fold stimulation (Melanocortin receptor 4 [3]): 7%
CS(=O)(=O)N1CC2(CCN(C(=O)[C@@H](Cc3ccc(Cl)cc3)NC(=O)[C@H]3Cc4ccccc4CN3)CC2)c2ccccc21	100%	190 nM	
O=C(N[C@H](Cc1ccc(Cl)cc1)C(=O)N1CCN(c2ccc(C(F)(F)F)cc2Cn2cncn2)CC1)[C@H]1Cc2ccccc2CN1	100%	680 nM	
O=C(Nc1ccccc1N1CCN(C(=O)[C@@H](Cc2ccc(Cl)cc2)NC(=O)[C@H]2Cc3ccccc3CN2)CC1)c1cccnc1	83%	1100 nM	
CC(=O)Nc1ccccc1N1CCN(C(=O)[C@@H](Cc2ccc(Cl)cc2)NC(=O)[C@H]2Cc3ccccc3CN2)CC1	64%	1900 nM	
CC(C)CN(Cc1ccccc1N1CCN(C(=O)[C@@H](Cc2ccc(Cl)cc2)NC(=O)[C@H]2Cc3ccccc3CN2)CC1)S(C)(=O)=O	100%	380 nM	
O=C(N[C@H](Cc1ccc(Cl)cc1)C(=O)N1CCN(c2c(Cn3cncn3)ccc3ccccc23)CC1)[C@H]1Cc2ccccc2CN1	100%	170 nM	
CCN(Cc1ccccc1N1CCN(C(=O)[C@@H](Cc2ccc(Cl)cc2)NC(=O)[C@H]2Cc3ccccc3CN2)CC1)S(C)(=O)=O	100%	690 nM	
COC(=O)C(=O)Nc1ccccc1N1CCN(C(=O)[C@@H](Cc2ccc(Cl)cc2)NC(=O)[C@H]2Cc3ccccc3CN2)CC1	55%	1600 nM	
CCOC(=O)CNC(=O)Nc1ccccc1N1CCN(C(=O)[C@@H](Cc2ccc(Cl)cc2)NC(=O)[C@H]2Cc3ccccc3CN2)CC1	68%	2100 nM	
